Results reported in paper doi:10.1101/2025.01.24.634724, “Receptor Activity-Modifying Protein 3 enhances GLP-1-mediated Insulin Secretion” (bioRxiv, 2025).
Several values for one entry are separate records, joined by “and”; a condition that tells them apart may be missing. Identical values can stand only once. Entries after “also recorded” stand apart in the source; their conditions may differ. Numbered stars: 1 amine (or outer) side, 2 acyl side, 3 side chain; on linkers, the order of the positions; unused ones are H or OH. Bridge positions count the residues as written; N and C are the ends. Square brackets hold non-standard residues; d marks the D form. Peptide text beside a SMILES is read from it. X1 = CC(=O)NC(C(=O)OC(C(C)C)C(N[*:1])C(=O)[*:2])C(O)C(C)C; PhLac = O=C(O)[CH](O)Cc1ccccc1; NMeT = CN[CH](C(=O)O)[CH](C)O; NMeA = CN[CH](C)C(=O)O; NMeDha = C=C(NC)C(=O)O

Legend:
CLR-RAMP1 = conditions: cited from earlier work
Description: As RAMP3 expression varies between tissues, it is possible that by directly targeting this complex, tissue specific receptor activation could be facilitated. […] Agonists which have reduced affinity for the RAMP3 complex over receptor alone ...

INS-1 832/3 cells = experiment: Insulin secretion (GSIS), INS-1 832/3; format: cell-based, rat; conditions: for effect of inhibitor on GLP-1-mediated insulin secretion: 10nM GLP-1, vector or RAMP3, 30 min inhibitor pre-treatment (YM-254890 100nM, PTX 0.2ng/μL), n>4
Method: (§1) Insulin content was measured with the insulin ultra-sensitive detection kit (Cisbio).

[1] = test system: LgBiT-GLP-1R with SmBiT-RAMP1 or -RAMP2; experiment: NanoBiT/BRET fluorescent ligand binding with SmBiT-RAMP1 or -RAMP2; conditions: SmBiT-RAMP1 or -RAMP2, HEK293T
Min6 B1 cells = experiment: Insulin secretion, siRNA treated Min6 B1; format: cell-based, mouse; conditions: 10nM or 1nM peptide with 10mM glucose; Min6 B1, n=4
Method: as §1

[2] = test system: wildtype SvEv129/SJ and isogenic Ramp3−/− male mice; experiment: IPGTT plasma insulin, WT and Ramp3−/− mice; format: in vivo, mouse; conditions: GLP-1 50nmol/kg subQ, 15 min after glucose 2g/kg i.p., n=5
Description: (§2) Ramp3^−/− mice and genotyping have been previously described ([34]).

[3] = test system: wildtype SvEv129/SJ and isogenic Ramp3−/− male mice; experiment: Insulin tolerance test (ITT), blood glucose, WT and Ramp3−/− mice; format: in vivo, mouse; conditions: GLP-1 50nmol/kg subQ 15 min before insulin 1IU/kg i.p., n=5
Description: as §2

GCGR with RAMP2 = conditions: RAMP2 co-expression ref 13; cited from earlier work
Description: Signalling bias can also be influenced by the tissue, due to differential expression of signalling proteins, as well as allosteric modulators. A common protein allosteric modulator of Class B1 GPCRs are the receptor activity-modifying proteins (RAMPs). First discovered for the calcitonin-like receptor, with which they form obligate heterodimers, RAMPs influence the expression, affinity, and signalling bias of the receptor. For the calcitonin family, this leads to receptors considered functionally distinct ([10], [11]), although smaller effects are observed on other receptors e.g. the vasoactiv ...

[4] = test system: Ramp1/Ramp3 knockout mice; conditions: mouse models; dual Ramp1/Ramp3 deletion ref 43 (Leuthardt et al.); cited from earlier work
Description: It is possible this difference is due to lower receptor expression, or a differential effect on bias for the rodent receptors than the human. Species differences in signalling bias have been observed for other GPCRs associated with islet cell pharmacology ([41]), so it stands to reason this might be influencing the differences o ...

Nluc-GLP-1R [5] = experiment: cAMP accumulation, HEK293T; format: cell-based
Nluc-GLP-1R [6] = experiment: (Ca2+)i mobilisation, HEK293T; format: cell-based
Method: HEK293T cells were transfected with 100ng Nluc-GLP-1R and 200ng of pcDNA3.1 or FLAG-RAMP3, or 100ng of pcDNA3.1 and FLAG- RAMP3 per 100μl cells and seeded in a 0.01% PLL-coated black-walled clear-bottom 96-well plate. 48 hours later media was removed, and cells were incubated in 10μM Fluor4-AM dye containing 2.5mM probenecid for 1 hour at room temperature. Cells were washed and dye replaced with Hank’s Balanced Salt Solution (Lonza) without Ca^2+ containing 0.1% BSA w/v. […] The response to vehicle was taken to be 0%, and the response to 10 μM ionomycin was used as 100%. For HEK293T cells, the maximal fluorescence was used for further analysis.

GLP-1R / Gαs = experiment: TRUPATH G protein dissociation, Gαs; format: cell-based; conditions: HEK293T
Method: (§3) G Protein dissociation assays were performed using the TRUPATH biosensor platform, as described ([28]). HEK293T cells were transfected with GLP-1R, Gα, Gγ, Gβ, and pcDNA3.1 or FLAG-RAMP3 all in equal quantities and incubated overnight. […] Cells were washed with KREBs with 0.1% BSA and incubated in buffer containing 5μM coelenterazine 400a for 5 minutes. Ligands were then added, and plates read using the Pherastar microplate reader using the BRET2 module, at 60-second intervals. The BRET2 ratio was calculated (λ515/λ400) and total dissociation over a 30-minute period used to generate dose response curves.

GLP-1R-Nluc [7] = experiment: Receptor internalisation (loss of BRET with RIT-Venus), HEK293T; format: cell-based; conditions: for effect of RAMP3 on internalisation: RAMP3 overexpression
Method: Experiments were performed as previously described (([47])).

GLP-1R / Gαq(R183Q) = experiment: TRUPATH G protein dissociation, Gαq(R183Q); conditions: HEK293T, R183Q mutant
Method: as §3

GLP-1R-Nluc [8] = experiment: β-arrestin recruitment, HEK293T; format: cell-based; conditions: stated in discussion
[9] = relative to GLP-1 at GLP-1R alone

Question: With NCCCC[C@H](NC(=O)[C@@H](Cc1cc(Br)c(O)c(Br)c1)NC(=O)N1CCC(N2Cc3ccccc3NC2=O)CC1)C(=O)N1CCN(c2ccncc2)CC1 [BIBN 4096 BS] as the molecule, how does the “activity at CLR-RAMP1” value (CLR-RAMP1) read?
Answer: CLR-RAMP1 antagonist

Question: Which “effect of inhibitor on GLP-1-mediated insulin secretion” value (shortened to “effect of inhibitor”) (INS-1 832/3 cells) does the source give for CC(C)(C)c1cc(C(=O)/C(C#N)=N/Nc2cccc(Cl)c2)no1 [ESI-09] here?
Answer: significantly decreased GLP-1 mediated potentiation of GSIS in both vector and RAMP3 transfected cells

Question: What about the “effect on insulin secretion with […] glucose alone” value (INS-1 832/3 cells; 10μM ESI-09, no GLP-1, n=6) of the same molecule?
Answer: a reduction was also observed on the response to 16.7mM glucose alone; also recorded: a non-significant reduction was also observed in cells stimulated with high glucose alone

Question: Which “effect of inhibitor” value (INS-1 832/3 cells) does the source give for Nc1ncnc2c1nc(Br)n2C1OC2COP(O)(=S)OC2C1O (stereo not shown) [Rp-8-Br-cAMPs] here?
Answer: no effect on insulin secretion, irrespective of the expression of RAMP3

Question: For C=C1C(=O)NC(C)C(=O)N(C)C(C)C(=O)NC(C(OC(=O)C(NC(C)=O)C(O)C(C)C)C(C)C)C(=O)N(C)C(C(C)OC)C(=O)OC(C)C(NC(C)=O)C(=O)OC(Cc2ccccc2)C(=O)N1C (stereo not shown) [YM-254890] (Ac-T[PhLac][NMeDha]A[NMeA][X1][NMeT](Me); ester 1-C; configuration not given here), which “effect of inhibitor” value (INS-1 832/3 cells) is on record?
Answer: the effect of YM-254890 was greater than PTX

Question: With “Ex-4-Red: Tag-Lite GLP-1 receptor red ligand, based on exendin-4 (Cisbio)” as the molecule, how does the “binding of Ex-4-Red” value [1] read?
Answer: not observed for SmBiT-RAMP1 or -RAMP2

Question: For GLP-1 (7–36amide), which insulin secretion (INS-1 832/3 cells) is on record?
Answer: 2.36±0.30 fold over 2.8mM glucose and 3.94±0.33 fold over 2.8mM glucose

Question: What about the “effect of RAMP3 knockdown on insulin secretion” value (Min6 B1 cells) of the same molecule?
Answer: attenuated, although the effect was small

Question: What about the “plasma insulin, IPGTT” value ([2]; Ramp3−/− mice) of the same molecule?
Answer: This response was lost in Ramp3^−/− mice; also recorded: no longer able to elevate insulin secretion above vehicle-treated animals

Question: What about the “plasma insulin, IPGTT” value ([2]; WT mice) of the same molecule?
Answer: increased insulin secretion 15 minutes after administration of glucose

Question: And the “blood glucose, ITT” value ([3]; Ramp3−/− mice)?
Answer: lost in Ramp3^−/− mice (Figure 7H)

Question: What about the “blood glucose, ITT” value ([3]; WT mice) of the same molecule?
Answer: potentiated the effects of insulin on blood glucose

Question: What about the “effect of RAMP2 on Gαs coupling at GCGR” value (GCGR with RAMP2) of the same molecule?
Answer: decreasing the response

Question: And the “effect of Ramp knockout on bodyweight lowering” value [4]?
Answer: increase the effect of GLP-1 on bodyweight lowering in mouse models

Question: Which cAMP production (Nluc-GLP-1R [5]; 8-minute stimulation, concentration range tested) does the source give for GLP-1 (9–36amide) [GLP-1 9–36] here?
Answer: did not elicit sufficient cAMP production over the concentration range tested

Question: What about the “(Ca2+)i mobilisation” value (Nluc-GLP-1R [6]; in the absence of RAMP3) of the same molecule?
Answer: unable to elicit any (Ca^2+)i mobilisation in the absence of RAMP3

Question: Which “effect of RAMP3 on Gαs dissociation” value (GLP-1R / Gαs) does the source give for “exendin-4: incretin mimetic, approved for T2DM in 2005” here?
Answer: no effect

Question: What about the “effect of RAMP3 overexpression on cAMP potency and efficacy” value (“effect of RAMP3 overexpression” below) (Nluc-GLP-1R [5]; 8-minute stimulation) of the same molecule?
Answer: reductions in both potency and efficacy observed when RAMP3 was overexpressed

Question: What about the “effect of RAMP3 on internalisation” value (GLP-1R-Nluc [7]) of the same molecule?
Answer: no subsequent effect on internalisation

Question: And the “effect of RAMP3 on Gαq(Q) dissociation” value (GLP-1R / Gαq(R183Q))?
Answer: no effect

Question: For “glucagon: agonist of the glucagon receptor (GCGR)”, which “effect of RAMP2 on Gαs coupling at GCGR” value (GCGR with RAMP2) is on record?
Answer: increasing Gαs coupling at GCGR

Question: For “glucose-dependent insulinotropic polypeptide [GIP]”, which “effect of RAMP1 and RAMP3 on insulin secretion” value (INS-1 832/3 cells) is on record?
Answer: both RAMP1 and 3 increased insulin secretion

Question: What about the “effect of RAMP3 knockdown on insulin secretion” value (Min6 B1 cells) of the same molecule?
Answer: unaffected by RAMP3 knockdown

Question: For “liraglutide: a synthetic, lipidated GLP-1 mimetic, approved in the treatment of T2DM”, which “effect of RAMP3 on Gαs dissociation” value (GLP-1R / Gαs) is on record?
Answer: no effect

Question: What about the “effect of RAMP3 overexpression” value (Nluc-GLP-1R [5]; 8-minute stimulation) of the same molecule?
Answer: reductions in both potency and efficacy observed when RAMP3 was overexpressed

Question: And the “effect of RAMP3 on LogRA, cAMP accumulation / second messenger” value (Nluc-GLP-1R [5]; [9])?
Answer: lesser effects on second messenger signalling

Question: And the “effect of RAMP3 on (Ca2+)i mobilisation” value (Nluc-GLP-1R [6])?
Answer: no significant effects

Question: What about the inherent signalling bias (GLP-1R-Nluc [8]) of the same molecule?
Answer: bias towards β-arrestin recruitment

Question: What about the “effect of RAMP3 on internalisation” value (GLP-1R-Nluc [7]) of the same molecule?
Answer: significant decrease in the potency of internalisation; also recorded: the response to liraglutide was reduced

Question: And the “effect of RAMP3 on LogRA, desensitisation / internalisation” value (GLP-1R-Nluc [7]; [9])?
Answer: greater reduction in internalisation

Question: And the “effect of RAMP2 on Gαs coupling at GCGR” value (GCGR with RAMP2)?
Answer: decreasing the response

Question: And the “effect of RAMP3 on Gαq(Q) dissociation” value (GLP-1R / Gαq(R183Q))?
Answer: no effect

Question: With “oxyntomodulin: an endogenous dual agonist of both GCGR and GLP-1R” as the molecule, how does the “effect of RAMP3 overexpression” value (Nluc-GLP-1R [5]; 8-minute stimulation) read?
Answer: reductions in both potency and efficacy observed when RAMP3 was overexpressed

Question: What about the “effect of RAMP3 on internalisation” value (GLP-1R-Nluc [7]) of the same molecule?
Answer: no subsequent effect on internalisation

Question: And the “effect of RAMP2 on Gαs coupling at GCGR” value (GCGR with RAMP2)?
Answer: increasing Gαs coupling at GCGR

Question: And the “effect of RAMP3 on Gαq(Q) dissociation” value (GLP-1R / Gαq(R183Q))?
Answer: no effect

Question: Which “effect of inhibitor” value (INS-1 832/3 cells) does the source give for pertussis toxin [PTX] here?
Answer: decreased insulin secretion significantly only when RAMP3 was overexpressed
